Reference: US20100267561A1, “HERBICIDAL PYRIDAZINONE DERIVATIVES” (priority 2007, published 2010)
Where two headings read alike, the source gives them in different places.

Assays:
Assay type in all cases: in vivo
[1] = tested on: canarygrass (Phalaris minor); assay: Test B postemergence plant response; settings: Postemergence
How it was run: (§1)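 Visual injury ratings on a 0–100 scale, where 100 means complete control, were made 13 to 15 days after postemergence treatment of greenhouse-grown plants at the 1- to 4-leaf stage.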

[2] = tested on: windgrass (Apera spica-venti); assay: Test B postemergence plant response; settings: Postemergence
How it was run: as §1

[3] = tested on: chickweed (Stellaria media); assay: Test B postemergence plant response; settings: Postemergence
How it was run: as §1

[4] = tested on: winter barley (Hordeum vulgare); assay: Test B postemergence plant response; settings: Postemergence
How it was run: as §1

rice (Oryza sativa) = assay: Test B flooded paddy test plant response; settings: Oryza sativa, read-out: Plant response rating, Rice
How it was run: (§2)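 Rice, umbrella sedge, ducksalad and barnyardgrass at 2-leaf stage; pots flooded to 3 cm, compounds applied into paddy water, depth held throughout. Greenhouse 13 to 15 days, then visual rating vs untreated controls on 0–100 scale (0 no effect, 100 complete control); dash means no test result.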

[5] = tested on: barnyardgrass (Echinochloa crus-galli); assay: Test B flooded paddy test plant response; settings: Echinochloa crus-galli, read-out: Plant response rating, Barnyardgrass
How it was run: as §2

[6] = tested on: umbrella sedge (Cyperus difformis); assay: Test B flooded paddy test plant response; settings: Cyperus difformis, read-out: Plant response rating, Sedge, Umbrella
How it was run: as §2

[7] = tested on: ducksalad (Heteranthera limosa); assay: Test B flooded paddy test plant response; settings: Heteranthera limosa, read-out: Plant response rating, Ducksalad
How it was run: as §2

[8] = tested on: pigweed (Amaranthus retroflexus); assay: Test A pre-/postemergence plant response; settings: Amaranthus retroflexus, 240 h, read-out: Plant response rating, Pigweed; for pest or weed control at 125 g/ha: 125 g ai/ha; for pest or weed control at 500 g/ha: 500 g ai/ha
How it was run: (§3)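 Greenhouse pot test: loam–sand soil; pre- and postemergence sprays applied same day; post plants 2–10 cm, 1–2 leaves. Readout ~10 d, visual % injury vs untreated (0 = none, 100 = complete control).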

corn (Zea mays) = assay: Test A pre-/postemergence plant response; settings: Zea mays, 240 h; for Corn plant response rating (crop injury, 0 = no effect, 100 = complete kill) at 125 g/ha: 125 g ai/ha; for Corn plant response rating (crop injury, 0 = no effect, 100 = complete kill) at 500 g/ha: 500 g ai/ha
How it was run: as §3

[9] = tested on: barnyardgrass (Echinochloa crus-galli); assay: Test A pre-/postemergence plant response; settings: Echinochloa crus-galli, 240 h, read-out: Plant response rating, Barnyardgrass; for pest or weed control at 125 g/ha: 125 g ai/ha; for pest or weed control at 500 g/ha: 500 g ai/ha
How it was run: as §3

[10] = tested on: morningglory (Ipomoea coccinea); assay: Test A pre-/postemergence plant response
How it was run: as §3

[11] = tested on: velvetleaf (Abutilon theophrasti); assay: Test A pre-/postemergence plant response
How it was run: as §3

[12] = tested on: wheat (Triticum aestivum); assay: Test A pre-/postemergence plant response; settings: Triticum aestivum, 240 h, read-out: Plant response rating, Wheat; for plant injury at 125 g/ha: 125 g ai/ha; for plant injury at 500 g/ha: 500 g ai/ha
How it was run: as §3

[13] = tested on: large crabgrass (Digitaria sanguinalis); assay: Test A pre-/postemergence plant response; settings: Digitaria sanguinalis, 240 h, read-out: Plant response rating, Crabgrass, Large; for pest or weed control at 125 g/ha: 125 g ai/ha; for pest or weed control at 500 g/ha: 500 g ai/ha
How it was run: as §3

[14] = 31 g ai/ha, scale 0 to 100, 0 no effect, 100 complete control
[15] = Flood (flooded paddy test), 62 g ai/ha, scale 0 to 100, 0 no effect, 100 complete control
[16] = Flood (flooded paddy test), 125 g ai/ha, scale 0 to 100, 0 no effect, 100 complete control
[17] = Flood (flooded paddy test), 250 g ai/ha, scale 0 to 100, 0 no effect, 100 complete control
[18] = Flood, 31 g ai/ha, scale 0 to 100
[19] = post-emergence, Postemergence, 0 to 100 scale, 0 no effect, 100 complete control
[20] = pre-emergence, Preemergence, 0 to 100 scale (0 no effect, 100 complete control)
[21] = Postemergence, 125 g ai/ha, 0 to 100 scale, 0 no effect, 100 complete control
[22] = Postemergence, 500 g ai/ha, 0 to 100 scale, 0 no effect, 100 complete control
[23] = Preemergence, 125 g ai/ha, 0 to 100 scale (0 no effect, 100 complete control)
[24] = Preemergence, 500 g ai/ha, 0 to 100 scale (0 no effect, 100 complete control)

## CCc1cc(-c2ccc(C(F)(F)F)cc2)nn1-c1c(O)cnn(C)c1=O [Compound 11, 4-[5-ethyl-3-[4-(trifluoromethyl)phenyl]-1H-pyrazol-1-yl]-5-hydroxy-2-methyl-3(2H)-pyridazinone]
[1]; 16 g ai/ha, scale 0 to 100
  Plant response rating, Canarygrass: 80
[1]; [14]
  Plant response rating, Canarygrass: 100
[1]; 62 g ai/ha, scale 0 to 100
  Plant response rating, Canarygrass: 100
[1]; 125 g ai/ha, scale 0 to 100
  Plant response rating, Canarygrass: 100
[2]; 16 g ai/ha, scale 0 to 100
  Plant response rating, Windgrass: 100
[2]; [14]
  Plant response rating, Windgrass: 100
[2]; 62 g ai/ha, scale 0 to 100
  Plant response rating, Windgrass: 100
[2]; 125 g ai/ha, scale 0 to 100
  Plant response rating, Windgrass: 100
[3]; 16 g ai/ha, scale 0 to 100
  Plant response rating, Chickweed: 0
[3]; [14]
  Plant response rating, Chickweed: 0
[3]; 62 g ai/ha, scale 0 to 100
  Plant response rating, Chickweed: 0
[3]; 125 g ai/ha, scale 0 to 100
  Plant response rating, Chickweed: 0
[4]; 16 g ai/ha, scale 0 to 100, 0 no effect, 100 complete control
  Plant response rating, Barley: 90
[4]; [14]
  Plant response rating, Barley: 95
[4]; 62 g ai/ha, scale 0 to 100
  Plant response rating, Barley: 100
[4]; 125 g ai/ha, scale 0 to 100
  Plant response rating, Barley: 100
Rice (Oryza sativa); [15]
  plant injury at 62 g/ha: 30%
Rice (Oryza sativa); [16]
  plant injury at 125 g/ha: 60%
Rice (Oryza sativa); [17]
  plant injury at 250 g/ha: 70%
Rice (Oryza sativa); [18]
  plant injury at 31 g/ha: 0%
[5]; [15]
  pest or weed control at 62 g/ha: 50%
[5]; [16]
  pest or weed control at 125 g/ha: 65%
[5]; [17]
  pest or weed control at 250 g/ha: 75%
[5]; [18]
  pest or weed control at 31 g/ha: 40%
[6]; [15]
  pest or weed control at 62 g/ha: 30%
[6]; [16]
  pest or weed control at 125 g/ha: 40%
[6]; [17]
  pest or weed control at 250 g/ha: 40%
[6]; [18]
  pest or weed control at 31 g/ha: 30%
[7]; [15]
  pest or weed control at 62 g/ha: 0%
[7]; [16]
  pest or weed control at 125 g/ha: 0%
[7]; [17]
  pest or weed control at 250 g/ha: 40%
[7]; [18]
  pest or weed control at 31 g/ha: 0%
[8]; [19]
  pest or weed control at 125 g/ha: 0%
  pest or weed control at 500 g/ha: 0%
[8]; [20]
  pest or weed control at 125 g/ha: 0%
  pest or weed control at 500 g/ha: 30%
Corn (Zea mays); [19]
  Corn plant response rating (crop injury, 0 = no effect, 100 = complete kill) at 125 g/ha: 90%
  Corn plant response rating (crop injury, 0 = no effect, 100 = complete kill) at 500 g/ha: 90%
Corn (Zea mays); [20]
  Corn plant response rating (crop injury, 0 = no effect, 100 = complete kill) at 125 g/ha: 90%
  Corn plant response rating (crop injury, 0 = no effect, 100 = complete kill) at 500 g/ha: 100%
[9]; [19]
  pest or weed control at 125 g/ha: 100%
  pest or weed control at 500 g/ha: 100%
[9]; [20]
  pest or weed control at 125 g/ha: 100%
  pest or weed control at 500 g/ha: 100%
[10]; [21]
  Plant response rating, Morningglory: 0
[10]; [22]
  Plant response rating, Morningglory: 0
[10]; [23]
  Plant response rating, Morningglory: 0
[10]; [24]
  Plant response rating, Morningglory: 30
[11]; [21]
  Plant response rating, Velvetleaf: 0
[11]; [22]
  Plant response rating, Velvetleaf: 0
[11]; [23]
  Plant response rating, Velvetleaf: 0
[11]; [24]
  Plant response rating, Velvetleaf: 0
[12]; [19]
  plant injury at 125 g/ha: 80%
  plant injury at 500 g/ha: 100%
[12]; [20]
  plant injury at 125 g/ha: 100%
  plant injury at 500 g/ha: 100%
[13]; [19]
  pest or weed control at 125 g/ha: 90%
  pest or weed control at 500 g/ha: 100%
[13]; [20]
  pest or weed control at 125 g/ha: 100%
  pest or weed control at 500 g/ha: 100%
